# Source: ChEMBL document CHEMBL3217756, “Biological and computational evaluation of an oxadiazole derivative (MD77) as a new lead for direct STAT3 inhibitors” (Medchemcomm, 2012)
# Columns and labels:
# [1] = Cytotoxicity against human HCT15 cells after 48 hrs by sulforhodamine B assay; format: functional; conditions: HCT-15, 48 h
# [2] = target: Signal transducer and activator of transcription 3 (Homo sapiens, UniProt P40763); assay: Inhibition of SH2 domain of STAT3 (unknown origin) using (FITC)-GpYLPQTV as substrate at 30 uM preincubated for 15 mins before substrate addition measured after 90 mins by alphascreen based assay
# SN12C = assay: Cytotoxicity against human SN12C cells after 48 hrs by sulforhodamine B assay; format: functional
# SW-620 = assay: Cytotoxicity against human SW620 cells after 48 hrs by sulforhodamine B assay; format: functional; conditions: SW-620, 48 h
# NCI-H522 = assay: Cytotoxicity against human NCI-H522 cells after 48 hrs by sulforhodamine B assay; format: functional; conditions: NCI-H522, 48 h
# HT-29 = assay: Cytotoxicity against human HT-29 cells after 48 hrs by sulforhodamine B assay; format: functional; conditions: HT-29, 48 h
# PC-3 = assay: Cytotoxicity against human PC3 cells after 48 hrs by sulforhodamine B assay; format: functional; conditions: PC-3, 48 h
# MCF7 = assay: Cytotoxicity against human MCF7 cells after 48 hrs by sulforhodamine B assay; format: functional; conditions: MCF7, 48 h
# SR = assay: Cytotoxicity against human SR cells after 48 hrs by sulforhodamine B assay; format: functional
# [3] = Cytotoxicity against human NCI-ADR-RES cells after 48 hrs by sulforhodamine B assay; format: functional
# T47D = assay: Cytotoxicity against human T47D cells after 48 hrs by sulforhodamine B assay; format: functional
# SNB-75 = assay: Cytotoxicity against human SNB75 cells after 48 hrs by sulforhodamine B assay; format: functional; conditions: SNB-75, 48 h
# SK-MEL-2 = assay: Cytotoxicity against human SK-MEL-2 cells after 48 hrs by sulforhodamine B assay; format: functional; conditions: SK-MEL-2, 48 h
# U-251 = assay: Cytotoxicity against human U251 cells after 48 hrs by sulforhodamine B assay; format: functional; conditions: U-251, 48 h
# A498 = assay: Cytotoxicity against human A498 cells after 48 hrs by sulforhodamine B assay; format: functional; conditions: A498, 48 h
# DU-145 = assay: Cytotoxicity against human DU145 cells after 48 hrs by sulforhodamine B assay; format: functional; conditions: DU-145, 48 h
# SK-OV-3 = assay: Cytotoxicity against human SKOV3 cells after 48 hrs by sulforhodamine B assay; format: functional; conditions: SK-OV-3, 48 h
# RXF 393 = assay: Cytotoxicity against human RXF393 cells after 48 hrs by sulforhodamine B assay; format: functional; conditions: RXF 393, 48 h
# [4] = Cytotoxicity against human OVCAR3 cells after 48 hrs by sulforhodamine B assay; format: functional; conditions: OVCAR-3, 48 h
# KM12 = assay: Cytotoxicity against human KM12 cells after 48 hrs by sulforhodamine B assay; format: functional; conditions: KM12, 48 h
# MDA-MB-231 = assay: Cytotoxicity against human MDA-MB-231 cells after 48 hrs by sulforhodamine B assay; format: functional; conditions: MDA-MB-231, 48 h
# [5] = read-out: LC50 (the source's name)
# [6] = read-out: pLC50 (the source's name) (converted)
# Chain of Signal transducer and activator of transcription 3 (P40763 whole entry, the tested form may be a part): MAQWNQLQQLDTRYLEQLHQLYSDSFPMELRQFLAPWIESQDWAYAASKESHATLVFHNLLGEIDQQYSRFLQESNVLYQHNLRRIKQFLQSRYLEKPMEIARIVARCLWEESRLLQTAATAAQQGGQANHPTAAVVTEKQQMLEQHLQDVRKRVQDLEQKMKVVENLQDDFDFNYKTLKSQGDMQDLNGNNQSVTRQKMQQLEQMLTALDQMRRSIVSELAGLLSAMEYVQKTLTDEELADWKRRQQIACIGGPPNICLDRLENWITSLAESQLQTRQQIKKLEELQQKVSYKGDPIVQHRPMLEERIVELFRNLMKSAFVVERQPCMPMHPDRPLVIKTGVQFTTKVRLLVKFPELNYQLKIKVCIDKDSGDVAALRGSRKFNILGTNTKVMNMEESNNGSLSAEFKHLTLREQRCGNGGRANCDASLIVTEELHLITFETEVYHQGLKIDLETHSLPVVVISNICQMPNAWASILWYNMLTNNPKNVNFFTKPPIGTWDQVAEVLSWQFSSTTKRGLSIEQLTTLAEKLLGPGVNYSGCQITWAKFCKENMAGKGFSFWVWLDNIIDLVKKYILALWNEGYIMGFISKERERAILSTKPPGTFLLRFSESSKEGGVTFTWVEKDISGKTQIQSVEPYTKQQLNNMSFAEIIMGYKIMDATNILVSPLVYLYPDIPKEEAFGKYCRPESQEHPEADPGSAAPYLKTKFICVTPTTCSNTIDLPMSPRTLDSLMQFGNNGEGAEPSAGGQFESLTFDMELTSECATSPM
compound,measurement,setting,value
O=C(Nc1nonc1-c1ccc(Cl)cc1)c1ccc(C(F)(F)F)cc1,GI50,[1]; read-out: GI50,3.5 µM
same,CC50,[1]; [5],> 100 µM
same,TGI,[1]; read-out: TGI,> 100 µM
same,GI50,[1]; read-out: pGI50 (converted),3.47 µM
same,CC50,[1]; [6],> 100 µM
same,TGI,[1]; read-out: pTGI,> 100 µM
same,inhibition,[2],72%
same,GI50,SN12C; read-out: GI50,2.87 µM
same,CC50,SN12C; [5],> 100 µM
same,TGI,SN12C; read-out: TGI,> 100 µM
same,GI50,SN12C; read-out: pGI50 (converted),2.88 µM
same,CC50,SN12C; [6],> 100 µM
same,TGI,SN12C; read-out: pTGI,> 100 µM
same,GI50,SW-620; read-out: GI50,2.82 µM
same,CC50,SW-620; [5],> 100 µM
same,TGI,SW-620; read-out: TGI,> 100 µM
same,GI50,SW-620; read-out: pGI50 (converted),2.82 µM
same,CC50,SW-620; [6],> 100 µM
same,TGI,SW-620; read-out: pTGI,> 100 µM
same,GI50,NCI-H522; read-out: GI50,2.07 µM
same,CC50,NCI-H522; [5],> 100 µM
same,TGI,NCI-H522; read-out: TGI,7.12 µM
same,GI50,NCI-H522; read-out: pGI50 (converted),2.09 µM
same,CC50,NCI-H522; [6],> 100 µM
same,TGI,NCI-H522; read-out: pTGI (converted),7.08 µM
same,GI50,HT-29; read-out: GI50,3.23 µM
same,CC50,HT-29; [5],> 100 µM
same,TGI,HT-29; read-out: TGI,> 100 µM
same,GI50,HT-29; read-out: pGI50 (converted),3.24 µM
same,CC50,HT-29; [6],> 100 µM
same,TGI,HT-29; read-out: pTGI,> 100 µM
same,GI50,PC-3; read-out: GI50,1.38 µM
same,CC50,PC-3; [5],> 100 µM
same,TGI,PC-3; read-out: TGI,8.91 µM
same,GI50,PC-3; read-out: pGI50 (converted),1.38 µM
same,CC50,PC-3; [6],> 100 µM
same,TGI,PC-3; read-out: pTGI (converted),8.91 µM
same,GI50,MCF7; read-out: GI50,2.84 µM
same,CC50,MCF7; [5],> 100 µM
same,TGI,MCF7; read-out: TGI,8.15 µM
same,GI50,MCF7; read-out: pGI50 (converted),2.82 µM
same,CC50,MCF7; [6],> 100 µM
same,TGI,MCF7; read-out: pTGI (converted),8.13 µM
same,GI50,SR; read-out: GI50,2.85 µM
same,CC50,SR; [5],> 100 µM
same,TGI,SR; read-out: TGI,10.6 µM
same,GI50,SR; read-out: pGI50 (converted),2.82 µM
same,CC50,SR; [6],> 100 µM
same,TGI,SR; read-out: pTGI (converted),10.7 µM
same,GI50,[3]; read-out: GI50,2.66 µM
same,CC50,[3]; [5],> 100 µM
same,GI50,[3]; read-out: pGI50 (converted),2.63 µM
same,CC50,[3]; [6],> 100 µM
same,GI50,T47D; read-out: GI50,3.13 µM
same,CC50,T47D; [5],> 100 µM
same,TGI,T47D; read-out: TGI,> 100 µM
same,GI50,T47D; read-out: pGI50 (converted),3.16 µM
same,CC50,T47D; [6],> 100 µM
same,TGI,T47D; read-out: pTGI,> 100 µM
same,GI50,SNB-75; read-out: GI50,1.79 µM
same,CC50,SNB-75; [5],> 100 µM
same,TGI,SNB-75; read-out: TGI,7.54 µM
same,GI50,SNB-75; read-out: pGI50 (converted),1.78 µM
same,CC50,SNB-75; [6],> 100 µM
same,TGI,SNB-75; read-out: pTGI (converted),7.59 µM
same,GI50,SK-MEL-2; read-out: GI50,2.1 µM
same,LC50 (concentration killing 50% of cells),SK-MEL-2; read-out: LC50,> 100 µM
same,TGI,SK-MEL-2; read-out: TGI,5.11 µM
same,GI50,SK-MEL-2; read-out: pGI50 (converted),2.09 µM
same,LC50 (concentration killing 50% of cells),SK-MEL-2; read-out: pLC50 (converted),> 100 µM
same,TGI,SK-MEL-2; read-out: pTGI (converted),5.13 µM
same,GI50,U-251; read-out: GI50,2.19 µM
same,LC50,U-251; read-out: LC50,> 100 µM
same,TGI,U-251; read-out: TGI,> 100 µM
same,GI50,U-251; read-out: pGI50 (converted),2.19 µM
same,LC50,U-251; read-out: pLC50 (converted),> 100 µM
same,TGI,U-251; read-out: pTGI,> 100 µM
same,GI50,A498; read-out: GI50,1.73 µM
same,LC50,A498; read-out: LC50,> 100 µM
same,TGI,A498; read-out: TGI,5.46 µM
same,GI50,A498; read-out: pGI50 (converted),1.74 µM
same,LC50,A498; read-out: pLC50 (converted),> 100 µM
same,TGI,A498; read-out: pTGI (converted),5.5 µM
same,GI50,DU-145; read-out: GI50,3.48 µM
same,CC50,DU-145; [5],> 100 µM
same,TGI,DU-145; read-out: TGI,> 100 µM
same,GI50,DU-145; read-out: pGI50 (converted),3.47 µM
same,CC50,DU-145; [6],> 100 µM
same,TGI,DU-145; read-out: pTGI,> 100 µM
same,GI50,SK-OV-3; read-out: GI50,2.92 µM
same,CC50,SK-OV-3; [5],> 100 µM
same,TGI,SK-OV-3; read-out: TGI,7.6 µM
same,GI50,SK-OV-3; read-out: pGI50 (converted),2.88 µM
same,CC50,SK-OV-3; [6],> 100 µM
same,TGI,SK-OV-3; read-out: pTGI (converted),7.59 µM
same,GI50,RXF 393; read-out: GI50,2.21 µM
same,CC50,RXF 393; [5],> 100 µM
same,TGI,RXF 393; read-out: TGI,6.07 µM
same,GI50,RXF 393; read-out: pGI50 (converted),2.24 µM
same,CC50,RXF 393; [6],> 100 µM
same,TGI,RXF 393; read-out: pTGI (converted),6.03 µM
same,GI50,[4]; read-out: GI50,2.18 µM
same,CC50,[4]; [5],> 100 µM
same,TGI,[4]; read-out: TGI,7.9 µM
same,GI50,[4]; read-out: pGI50 (converted),2.19 µM
same,CC50,[4]; [6],> 100 µM
same,TGI,[4]; read-out: pTGI (converted),7.94 µM
same,GI50,KM12; read-out: GI50,3.06 µM
same,CC50,KM12; [5],> 100 µM
same,TGI,KM12; read-out: TGI,> 100 µM
same,GI50,KM12; read-out: pGI50 (converted),3.09 µM
same,CC50,KM12; [6],> 100 µM
same,TGI,KM12; read-out: pTGI,> 100 µM
same,GI50,MDA-MB-231; read-out: GI50,2.79 µM
same,LC50,MDA-MB-231; read-out: LC50,> 100 µM
same,TGI,MDA-MB-231; read-out: TGI,7.59 µM
same,GI50,MDA-MB-231; read-out: pGI50 (converted),2.82 µM
same,LC50,MDA-MB-231; read-out: pLC50 (converted),> 100 µM
same,TGI,MDA-MB-231; read-out: pTGI (converted),7.59 µM
